In brackets after ≈: the same amount, converted by molar mass. Each block holds one compound with its values, some of them ahead of it.
Key:
[1] = system: Candida albicans; assay: Antifungal activity against Candida albicans ATCC 10231 assessed as growth inhibition measured after 48 hrs by CLSI based method; assay type: functional
[2] = system: Aspergillus niger; assay: Antifungal activity against Aspergillus niger assessed as reduction in fungal growth; assay type: functional
[3] = system: Bacillus subtilis; assay: Antibacterial activity against Bacillus subtilis ATCC 6633 assessed as bacterial growth inhibition measured after 48 hrs by resazurin assay; assay type: functional
[4] = system: Staphylococcus aureus; assay: Antibacterial activity against Staphylococcus aureus ATCC 25923 assessed as reduction in bacterial growth incubated for 18 to 20 hrs by broth microdilution assay; assay type: functional; conditions: time 18-20 hrs
[5] = system: Bacillus cereus; assay: Antibacterial activity against Bacillus cereus ATCC 4342 assessed as inhibition of microbial growth incubated for 24 hrs by microdilution method; assay type: functional
[6] = system: dengue virus type 4; assay: Antiviral activity Dengue virus 4; assay type: functional, organism-based
[7] = system: dengue virus type 3; assay: Antiviral activity Dengue virus 3; assay type: functional, organism-based
[8] = Cytotoxicity against African green monkey Vero cells; assay type: toxicity, cell-based; conditions: chlorocebus sabaeus
[9] = system: dengue virus type 2; assay: Antiviral activity Dengue virus 2; assay type: functional, organism-based
[10] = system: dengue virus type 1; assay: Antiviral activity Dengue virus 1; assay type: functional, organism-based
[11] = Solubility in water; assay type: physicochemical
[12] = target: T1, Human immunodeficiency virus type 1 reverse transcriptase (Human immunodeficiency virus 1, UniProt Q72547); assay: Inhibition of HIV-1 Reverse transcriptase
[13] = Oral bioavailability in rat; assay type: ADME, organism-based; conditions: in vivo
[14] = system: Human immunodeficiency virus 1; assay: Antiviral activity against HIV-1 IIIB infected in […] cells assessed as reduction in viral replication measured for 72 hrs; assay type: functional, organism-based; conditions: Human immunodeficiency virus 1, IIIB
[15] = system: Hepatitis B virus; assay: Antiviral activity against Hepatitis B virus infected in human HepG2.2.15 cells assessed as inhibition of HBV DNA production by qRT-PCR analysis; assay type: functional, organism-based
[16] = system: HepG2 2.2.15; assay: Cytotoxicity against human HepG2.2.15 cells assessed as reduction in cell growth by MTT assay; assay type: functional
[17] = system: Human immunodeficiency virus 1; assay: Antiviral activity against wild type HIV-1 IIIB infected in human MT4 cells; assay type: functional, organism-based; conditions: Human immunodeficiency virus 1, IIIB
[18] = system: C8166; assay: Cytotoxicity against human C8166 cells assessed as reduction in cell viability incubated for 72 hrs by MTT assay; assay type: functional
[19] = system: Human immunodeficiency virus 1; assay: Antiviral activity against HIV-1 IIIB infected in human C8166 cells assessed as reduction in virus-induced cytopathic effect incubated for 3 days by MTT assay; assay type: functional, organism-based; conditions: Human immunodeficiency virus 1, IIIB, C8166, 72 h
[20] = Selectivity index, ratio of CC50 for human C8166 cells to EC50 for antiviral activity against HIV-1 IIIB infected in human C8166 cells; assay type: toxicity, cell-based; conditions: read-out: Ratio CC50/EC50
[21] = Inhibition of Hepatitis C virus NS5B RNA dependent RNA polymerase; design: species or system Hepacivirus hominis
[22] = Cytotoxicity against African green monkey Vero cells assessed as reduction in cell viability measured after 96 hrs by MTT assay; assay type: toxicity, cell-based; conditions: chlorocebus sabaeus
[23] = system: Zika virus; assay: Antiviral activity against Zika virus infected in Vero cells assessed as reduction in viral DNA replication; assay type: functional, organism-based
[24] = Cytotoxicity against African green monkey Vero cells assessed as reduction in cell growth measured after 96 hrs by MTT assay; assay type: toxicity, cell-based; conditions: chlorocebus sabaeus
[25] = target: T1, Human immunodeficiency virus type 1 reverse transcriptase; assay: Inhibition of recombinant HIV-1 reverse transcriptase associated RNA-dependent DNA polymerase activity
[26] = system: MT4; assay: Cytotoxicity against human MT4 cells assessed as reduction in cell viability by MTT assay; assay type: functional
[27] = Selectivity index, ratio of CC50 for human MT4 cells to EC50 for antiviral activity against HIV-1 infected in human MT4 cells; assay type: toxicity, cell-based; conditions: read-out: Ratio CC50/EC50
[28] = system: Human immunodeficiency virus 1; assay: Antiviral activity against HIV-1 infected in human MT4 cells assessed as reduction in virus induced cytopathic effect measured for 4 days by MTT assay; assay type: functional, organism-based; conditions: Human immunodeficiency virus 1, MT4, 96 h
[29] = Toxicity in human C8166 cells assessed as reduction in cell viability incubated for 72 hrs by MTT assay; assay type: cell-based; conditions: read-out: TD50
[30] = system: Staphylococcus aureus; assay: Antibacterial activity against Staphylococcus aureus assessed as reduction in microbial growth measured for 18 hrs by CLSI based broth microdilution method; assay type: functional
[31] = Toxicity in African green monkey Vero cells assessed as reduction in cell viability incubated for 72 hrs by MTT assay; assay type: cell-based; conditions: chlorocebus sabaeus, read-out: TD50
[32] = system: Human immunodeficiency virus 1; assay: Antiviral wild type activity against HIV-1 IIIB infected in human C8166 cells assessed as reduction in virus-induced cytopathic effect incubated for 3 days by MTT assay; assay type: functional, organism-based; conditions: Human immunodeficiency virus 1, IIIB, C8166, 72 h
[33] = system: Human immunodeficiency virus 1; assay: Antiviral wild type activity against HIV-1 WAN infected in human PBMC cells assessed as reduction in virus-induced cytopathic effect incubated for 3 days by MTT assay; assay type: functional, organism-based; conditions: Human immunodeficiency virus 1, WAN, 72 h
[34] = system: Human immunodeficiency virus 1; assay: Antiviral […] activity against HIV-1 A17 harboring reverse transcriptase K103N/Y181C double mutant infected in human C8166 cells assessed as reduction in virus-induced cytopathic effect incubated for 3 days by MTT assay; assay type: functional, organism-based; conditions: Human immunodeficiency virus 1, A17, C8166, 72 h
[35] = system: Human immunodeficiency virus 1; assay: Antiviral wild type activity against HIV-1 TC-1 infected in human PBMC cells assessed as reduction in virus-induced cytopathic effect incubated for 3 days by MTT assay; assay type: functional, organism-based; conditions: Human immunodeficiency virus 1, TC-1, PBMC, 72 h
[36] = system: Human immunodeficiency virus 1; assay: Antiviral wild type activity against HIV-1 Ba-L infected in human TZM-bl cells assessed as reduction in virus-induced cytopathic effect incubated for 3 days by MTT assay; assay type: functional, organism-based; conditions: Human immunodeficiency virus 1, Ba-L, 72 h
[37] = Selectivity index, ratio of CC50 for Vero cells to EC50 for antiviral activity against HIV-1 infected in Vero cells; assay type: toxicity, cell-based; conditions: monkey, read-out: Ratio CC50/EC50
[38] = Cytotoxicity against African green monkey Vero cells assessed as reduction in cell viability incubated for 72 hrs by MTT assay; assay type: toxicity, cell-based; conditions: chlorocebus sabaeus

MIC [1]: 25 µg/mL (≈ 52.4 µM)
MIC [2]: 75 µg/mL (≈ 157 µM)
MIC [3]: 100 µg/mL (≈ 209 µM)
MIC [4]: 25 µg/mL (≈ 52.4 µM)
MIC [5]: 75 µg/mL
Compound: CCc1c(Cc2ccc3c(c2)OCO3)nc(SCCCN2C(=O)c3ccccc3C2=O)[nH]c1=O

EC50 [6]: 11.4 µM
EC50 [7]: 6.8 µM
EC50 [9]: 13.2 µM
EC50 [10]: 17.5 µM
Compound: CCc1c(CC2CCCCC2)nc(SCc2n[nH]c(-c3ccc(F)cc3)c2Cl)[nH]c1=O
CC50 [8]: > 200 µM

MIC [1]: 50 µg/mL (≈ 138 µM)
MIC [2]: 75 µg/mL (≈ 207 µM)
MIC [3]: 50 µg/mL (≈ 138 µM)
MIC [4]: 25 µg/mL (≈ 69.2 µM)
MIC [5]: 100 µg/mL
Compound: CCc1c(Cc2ccc3c(c2)OCO3)nc(SCCN(C)C)[nH]c1=O

Compound: CCc1c(CC2CCCCC2)nc(SCC(=O)c2ccc(OP(=O)(OC)OC)cc2)[nH]c1=O
solubility [11]: 6.4 µM (≈ 3.17 µg/mL)
IC50 [12]: 0.75 µM
bioavailability [13]: 14.6%
EC50 [14]: 0.01 µM

EC50 [15]: 0.2 µM
Compound: O=c1[nH]c(SC2OC[C@H](O)[C@@H](O)[C@@H]2O)nc(Cc2ccccc2)c1Cc1ccccc1 (some centres undefined)
CC50 [16]: > 100 µM

Compound: CCc1c(CC23CC4CC(CC(C4)C2)C3)nc(SCC(=O)c2ccccc2)[nH]c1=O
EC50 [17]: 0.19 µM
CC50 [18]: 20.4 µM
EC50 [19]: 0.19 µM
selectivity ratio [20]: 107

Compound: CCc1c(CC2CCCCC2)nc(SCC(=O)Nc2cc(F)cc(F)c2)[nH]c1=O
IC50 [21]: 0.089 µM
CC50 at 96 h [22]: > 10 µM
EC50 [23]: > 50 µM
CC50 at 96 h [24]: 60.2 µM

Compound: CCC(C)Oc1nc(N)cc(S(=O)(=O)c2cccc(C)c2)n1 (centres undefined)
IC50 [25]: 26.5 µM
CC50 [26]: > 200 µM
selectivity ratio [27]: > 43
EC50 [28]: 4.7 µM

Compound: CCc1c(CC23CC4CC(CC(C4)C2)C3)nc(SCC(=O)c2ccc(OC)cc2)[nH]c1=O
EC50 [17]: 0.1 µM
CC50 [18]: 17.2 µM
EC50 [19]: 0.1 µM
selectivity ratio [20]: 172

MIC [30]: 6.2 µg/mL
Compound: COc1ccc(C(Cl)(Cl)c2cc(Cl)nc(OC)n2)cc1
CC50 at 72 h [29]: 25 µg/mL (≈ 74.9 µM)
CC50 at 72 h [31]: 12.5 µg/mL (≈ 37.5 µM)

Compound: CCc1c(CC2CCCCC2)nc(SCc2cc(-c3ccc(SC)cc3)[nH]n2)[nH]c1=O
EC50 [32]: 0.018 µM
EC50 [19]: 0.011 µM
EC50 [33]: 0.165 µM
EC50 [34]: 4.87 µM
EC50 [35]: 0.055 µM
EC50 [36]: 0.193 µM

Compound: Cc1c(Sc2ccccc2)n(COCCO)c(=O)[nH]c1=O [HEPT]
selectivity ratio [37]: 106
CC50 at 72 h [38]: 740 µM
EC50 [14]: 7 µM

Reference: ChEMBL document CHEMBL6115028, “An Amazing 30-Year Journey around the DABO Family: A Medicinal Chemistry Lesson on a Versatile Class of Non-nucleoside HIV-1 Reverse Transcriptase Inhibitors” (J Med Chem, 2025)
